Experimental data as given in US20250115598A1 (Anaxis Pharma Pty Ltd, priority 2021, published 2025).
Where two headings read alike, the source gives them in different places.

Legend:
[1] = test system: U937 human histiocytic leukemia cell line; experiment: Cellular assay: inhibition of TSQ induced necroptosis, CellTitre-Glo viability; details: U937 cells, 48 hours, TSQ cocktail, read-out: Inhibition of TSQ-induced necroptosis (IC50 cell-based assay)
In short: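 U937 cells (20,000/well) treated with compound (10-point, 36 μM top, 1:3) plus TSQ cocktail (hTNF-Fc 100 ng/ml, Smac mimetic 500 nM, Q-VD-OPh 10 μM), 48 h at 37° C., 0.3% DMSO. Viability by CellTitre-Glo ATP luminescence; counter screen without TSQ measured compound-only effects on viability.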

U937 cells = experiment: Counter screen: cell viability without the TSQ cocktail (off-target effect); set-up: species or system human
In short: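 U937 cells (20000/well, HT-RPMI + 7.4% FBS) treated with compound (10-point 1:3 dilution from 36 μM, 0.3% DMSO) without the TSQ cocktail for 48 h at 37 °C/5% CO2. Viability read as ATP by CellTiter-Glo luminescence, flagging off-target cytotoxicity.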

endogenous MLKL in U937 = endogenous MLKL in U937 (Homo sapiens (Human), UniProt Q8NB16); experiment: Degradation assay: endogenous MLKL in U937 (western blot); details: U937, 24 h incubation, read-out: Degradation of endogenous MLKL in U937 (DC50 cell-based assay)
Sequence of endogenous MLKL in U937 (Q8NB16 whole entry): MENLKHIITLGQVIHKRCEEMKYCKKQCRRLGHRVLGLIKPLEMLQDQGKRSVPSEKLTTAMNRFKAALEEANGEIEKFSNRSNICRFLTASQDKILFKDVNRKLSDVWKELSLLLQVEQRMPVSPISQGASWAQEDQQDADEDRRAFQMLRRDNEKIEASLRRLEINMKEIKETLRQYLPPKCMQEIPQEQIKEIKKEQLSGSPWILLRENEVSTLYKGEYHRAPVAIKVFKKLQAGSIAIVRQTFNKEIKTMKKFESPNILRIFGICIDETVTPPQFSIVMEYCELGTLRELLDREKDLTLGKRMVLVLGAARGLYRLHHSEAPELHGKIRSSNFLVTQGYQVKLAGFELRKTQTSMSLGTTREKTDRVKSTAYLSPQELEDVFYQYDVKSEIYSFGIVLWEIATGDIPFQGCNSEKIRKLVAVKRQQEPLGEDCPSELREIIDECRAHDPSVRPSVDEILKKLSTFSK
In short: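 MDF (seeded the day before) or U937 cells were treated 24 h at 37 °C, 10% CO2 with compound at 10, 2, 0.4, 0.08 and 0.016 μM final. Endogenous MLKL was quantified by western blot (anti-MLKL 3H1), normalized to GAPDH. Percent degradation was taken relative to DMSO control.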

[2] = Table 23, read-out: Off-target effect (IC50 cell-based assay)
[3] = Homo sapiens, U-937, Table 26, read-out: Off-target effect (IC50 cell-based assay)

Molecule | DC50 (endogenous MLKL in U937) [µM] | IC50 ([1]; Table 23) [µM] | IC50 (U937 cells; [2]) [µM] | IC50 ([1]; Homo sapiens, U-937, Table 26) [µM] | IC50 (U937 cells; [3]) [µM]
Nc1ncc(-c2cnn(C3CCOCC3)c2)c2[nH]nc(-c3ccc(NS(=O)(=O)C(F)F)c(OCc4cccc(Cl)c4)c3)c12 [Compound 131] | – | 0.01 to 1 | > 10 | – | –
Cc1ncsc1-c1ccc(CNC(=O)[C@@H]2C[C@@H](O)CN2C(=O)[C@@H](NC(=O)COCCN2CCC(n3cc(-c4cnc(N)c5c(-c6ccc(NS(=O)(=O)C(F)F)c(O[C@@H](C)c7ccc(F)cc7)c6)nn(C)c45)cn3)CC2)C(C)(C)C)cc1 [Compound 1018, (2S,4R)-1-[(2S)-2-(2-{2-[4-(4-{4-amino-3-[4-(difluoromethanesulfonamido)-3-[(1S)-1-(4-fluorophenyl)ethoxy]phenyl]-1-methyl-1H-pyrazolo[4,3-c]pyridin-7-yl}-1H-pyrazol-1-yl)piperidin-1-yl]ethoxy}acetamido)-3,3-dimethylbutanoyl]-4-hydroxy-N-{[4-(4-methyl-1,3-thiazol-5-yl)phenyl]methyl}pyrrolidine-2-carboxamide] | – | – | – | < 1 | > 10
C[C@H](Oc1cc(-c2nn(C)c3c(-c4cnn(CCCCCCCOc5cccc6c5C(=O)N(C5CCC(=O)NC5=O)C6=O)c4)cnc(N)c23)ccc1NS(=O)(=O)C(F)F)c1ccc(F)cc1 (stereo partly shown) [Compound 1031, N-(4-{4-amino-7-[1-(7-{[2-(2,6-dioxopiperidin-3-yl)-1,3-dioxo-2,3-dihydro-1H-isoindol-4-yl]oxy}heptyl)-1H-pyrazol-4-yl]-1-methyl-1H-pyrazolo[4,3-c]pyridin-3-yl}-2-[(1 S)-1-(4-fluorophenyl)ethoxy]phenyl)-1,1-difluoromethanesulfonamide] | – | – | – | < 1 | –
N-(4-(4-amino-1-methyl-7-(1-(1,2,2-trimethylpiperidin-4-yl)-1H-pyrazol-4-yl)-1H-pyrazolo[4,3-c]pyridin-3-yl)-2-((S)-1-(4-fluorophenyl)ethoxy)phenyl)-1,1-difluoromethanesulfonamide [Compound 113] | – | < 0.01 | > 10 | – | –

Second part, led by results:

DC50 (endogenous MLKL in U937) [µM] | Molecule | IC50 ([1]; Table 23) [µM] | IC50 (U937 cells; [2]) [µM] | IC50 ([1]; Homo sapiens, U-937, Table 26) [µM] | IC50 (U937 cells; [3]) [µM]
< 1 | Cc1ncsc1-c1ccc(CNC(=O)[C@@H]2C[C@@H](O)CN2C(=O)[C@@H](NC(=O)COCCOCCn2cc(-c3cnc(N)c4c(-c5ccc(NS(=O)(=O)C(F)F)c(O[C@@H](C)c6ccc(F)cc6)c5)nn(C)c34)cn2)C(C)(C)C)cc1 [Compound 1006, (2S,4R)-1-[(2S)-2-(2-{2-[2-(4-{4-amino-3-[4-(difluoromethanesulfonamido)-3-[(1S)-1-(4-fluorophenyl)ethoxy]phenyl]-1-methyl-1H-pyrazolo[4,3-c]pyridin-7-yl}-1H-pyrazol-1-yl)ethoxy]ethoxy}acetamido)-3,3-dimethylbutanoyl]-4-hydroxy-N-{[4-(4-methyl-1,3-thiazol-5-yl)phenyl]methyl}pyrrolidine-2-carboxamide] | – | – | < 1 | 1 to 10
< 1 | Cc1ncsc1-c1ccc(CNC(=O)[C@@H]2C[C@@H](O)CN2C(=O)[C@@H](NC(=O)CCCCCCn2cc(-c3cnc(N)c4c(-c5ccc(NS(=O)(=O)C(F)F)c(O[C@@H](C)c6ccc(F)cc6)c5)nn(C)c34)cn2)C(C)(C)C)cc1 [Compound 1008, (2S,4R)-1-[(2S)-2-[7-(4-{4-amino-3-[4-(difluoromethanesulfonamido)-3-[(1 S)-1-(4-fluorophenyl)ethoxy]phenyl]-1-methyl-1H-pyrazolo[4,3-c]pyridin-7-yl}-1H-pyrazol-1-yl)heptanamido]-3,3-dimethylbutanoyl]-4-hydroxy-N-{[4-(4-methyl-1,3-thiazol-5-yl)phenyl]methyl}pyrrolidine-2-carboxamide] | – | – | < 1 | 1 to 10
< 1 | Cc1ncsc1-c1ccc(CNC(=O)[C@@H]2C[C@@H](O)CN2C(=O)[C@@H](NC(=O)CCN2CCCC(n3cc(-c4cnc(N)c5c(-c6ccc(NS(=O)(=O)C(F)F)c(O[C@@H](C)c7ccc(F)cc7)c6)nn(C)c45)cn3)C2)C(C)(C)C)cc1 (stereo partly drawn) [Compound 1014, (2S,4R)-1-[(2S)-2-{3-[3-(4-{4-amino-3-[4-(difluoromethanesulfonamido)-3-[(1S)-1-(4-fluorophenyl)ethoxy]phenyl]-1-methyl-1H-pyrazolo[4,3-c]pyridin-7-yl}-1H-pyrazol-1-yl)piperidin-1-yl]propanamido}-3,3-dimethylbutanoyl]-4-hydroxy-N-{[4-(4-methyl-1,3-thiazol-5-yl)phenyl]methyl}pyrrolidine-2-carboxamide] | – | – | < 1 | > 10
1 to 10 | Cc1ncsc1-c1ccc(CNC(=O)[C@@H]2C[C@@H](O)CN2C(=O)[C@@H](NC(=O)COCCN2CCCC(n3cc(-c4cnc(N)c5c(-c6ccc(NS(=O)(=O)C(F)F)c(O[C@@H](C)c7ccc(F)cc7)c6)nn(C)c45)cn3)C2)C(C)(C)C)cc1 (stereo partly drawn) [Compound 1015, (2S,4R)-1-[(2S)-2-(2-{2-[3-(4-{4-amino-3-[4-(difluoromethanesulfonamido)-3-[(1S)-1-(4-fluorophenyl)ethoxy]phenyl]-1-methyl-1H-pyrazolo[4,3-c]pyridin-7-yl}-1H-pyrazol-1-yl)piperidin-1-yl]ethoxy}acetamido)-3,3-dimethylbutanoyl]-4-hydroxy-N-{[4-(4-methyl-1,3-thiazol-5-yl)phenyl]methyl}pyrrolidine-2-carboxamide] | – | – | < 1 | > 10
